According to patent US7625917B2, “Thiolesters and uses thereof” (priority 1998, dated 2009):
Like-named read-outs stand apart in the source and are kept apart here.

Key:
[1] = tested on: HIV-1RF; assay: XTT cytoprotection assay (antiviral activity); format: cell-based
Text: One exemplary means to determine antiviral activity is with CEM-SS cells and virus (e.g., HIV-1RF) (MOI=0.01) using the XTT (2,3-bis[2-methoxy-4-nitro-5-sulfophenyl]-5-[(phenylamino)carbonyl]-2H-tetrazolium hydroxide) cytoprotection assay, as described by Rice (1993) PNAS 90:9721-9724, and Rice (1997) Antimicrob. Agents Chemother. 41:419-426. Briefly, cells are infected with HIV-1 RF (or other virus to be tested) in the presence of various dilutions of test compounds (thiolesters and controls). The cultures are incubated for seven days. During this time control cultures without protective compounds (i.e., compounds with anti-viral activity) replicate virus, induce syncytia, and result in about 90% cell death. The cell death is measured by XTT dye reduction. XTT is a soluble tetrazolium dye that measures mitochondrial energy output, similar to MTT. Positive controls using dextran sulfate (an attachment inhibitor) or 3′-Azido-2′-3′-dideoxythymidine, AZT (a reverse transcriptase inhibitor) are added to each assay. Individual assays are done in duplicate using a sister plate method.
Effective antiviral concentrations providing 50% cytoprotection (EC50), and cellular growth inhibitory concentrations causing 50% cytotoxicity (IC50) are calculated.

[2] = tested on: CEM-SS cells; assay: cells; format: cell-based; conditions: for cellular toxicity (in words): high test dose of 316 μM
Experimental: Agents Chemother. […] Briefly, cells are infected with HIV-1 RF (or other virus to be tested) in the presence of various dilutions of test compounds (thiolesters and controls). The cultures are incubated for seven days. […] The cell death is measured by XTT dye reduction. XTT is a soluble tetrazolium dye that measures mitochondrial energy output, similar to MTT. Positive controls using dextran sulfate (an attachment inhibitor) or 3′-Azido-2′-3′-dideoxythymidine, AZT (a reverse transcriptase inhibitor) are added to each assay. Individual assays are done in duplicate using a sister plate method.

[3] = biological target: T1, recombinant HIV-1 NCp7 protein (Human immunodeficiency virus type 1 group M subtype B, UniProt P03347); assay: Trp37 zinc finger fluorescence (zinc ejection) assay; format: biochemical
T1 construct: recombinant HIV-1 NCp7 protein
Experimental: Zinc finger reactivity was measured using a Zn specific fluorochrome, TSQ, N-(6-methoxy-8-quinolyl)-p-toluenesulfonamide, assay or a Trp37 zinc finger fluorescence assay. Fluorescent measurements of the Trp37 residue in the C-terminal finger of recombinant HIV-1 NCp7 protein were performed as described by Rice (1995) Science 270:1194-1197; Rice (1997) Antimicrob. Agents Chemother. 41:419-426. Measurement of Zn ejection from both fingers was measured using the Zn-selective fluorchrome probe TSQ (Molecular Probes, Eugene Oreg.) as described by Rice (1996) J. Med. Chem 39:3606-3616. […] Briefly, 50 nM NCp7 was treated with test compounds for 1 hour at RT in […] buffer containing 10% glycerol and 50 mM Tris-HCl (pH 7.5). Labeled oligomer (0.1 picomole, end labeled [^32P] was added in an equal volume of buffer containing 10% glycerol, 50 mM Tris-HCl (pH 7.5), 400 mM KCl and 40 mM MgCl2. The reaction was continued for 15 min at room temperature, and a total of […] (or ¼ of the total reaction volume) was separated on nondenaturing 4.5% polyacrylamide gels in 0.5× Tris-Borate electrophoresis buffer. NCp7-oligomer complexes were visualized by autoradiography.
Changes in the intrinsic fluorescence of aromatic protein moieties are commonly used to monitor a reaction which involves a change in protein conformation. In the present invention, fluorescence can be used to monitor the loss of metal ion from a zinc finger, e.g., the loss of zinc from a CCHC retroviral zinc finger protein, after contact with a thiolester of the invention. The intrinsic fluorescence of Trp37 in the second zinc finger of HIV-1 NC protein has been used to monitor nucleic acid binding and conformation of the zinc finger complex (see, Summers (1992) supra).
Zinc ejection is measured by the ability of compounds to chemically attack the cysteines in purified NCp7 protein resulting in a loss of fluorescence due to the. movement of the tryptophan 37 residue […] position on the protein. Zinc ejection is measured and expressed as either percent decrease in total fluorescence or decrease in relative fluorescence units per min during a 30 min assay (RFU/min). A thiolester is considered within the scope of the invention if any amount of zinc ejection is detected.

[4] = read-out: EC50 (concentration inhibiting 50% virus replication)
[5] = Table 3, 50% cytotoxicity, read-out: IC50
[6] = Table 3, average decrease in relative fluorescence
[7] = Table 5, 50% cytotoxicity, read-out: IC50
[8] = Table 5, average decrease in relative fluorescence units over 30 min
[9] = Table 6, 50% cytotoxicity, read-out: IC50
[10] = Table 6, average decrease in relative fluorescence units over 30 min

Compound: NS(=O)(=O)c1ccc(CNC(=O)c2ccccc2SSc2ccccc2C(=O)NCc2ccc(S(N)(=O)=O)cc2)cc1 [Compound 23 D, N,N′-(2,2′-dithiodibenzoyl)-bis-4-(aminomethyl)benzene-sulfonanide]
- EC50 ([1]; Table 2, read-out: EC50): 0.33 µM
- IC50 ([2]; read-out: toxicity / IC50): 19.4 µM
- zinc finger reactivity / zinc ejection rate [3]: 3.3 RFU/min

Compound: NS(=O)(=O)c1ccc(NC(=O)CNC(=O)c2ccccc2SSc2ccccc2C(=O)NCC(=O)Nc2ccc(S(N)(=O)=O)cc2)cc1 [Compound 25 D, N,N′-(2,2′-dithiodibenzoyl)-bis-4-(glycinamido)benzenesulfonamide]
- EC50 ([1]; Table 2, read-out: EC50): 1.6 µM
- IC50 ([2]; Table 2, 50% cytotoxicity, read-out: IC50): 17.6 µM
- zinc finger reactivity / zinc ejection rate [3]: 7.9 RFU/min

Compound: Nc1ccc(S(=O)(=O)c2ccc(NC(=O)c3ccccc3SSc3ccccc3C(=O)Nc3ccc(S(=O)(=O)c4ccc(N)cc4)cc3)cc2)cc1 [Compound 26 D]
- EC50 ([1]; Table 3, read-out: EC50): 4.3 µM
- EC50 [1, 4]: 4.3 µM
- IC50 [2, 5]: < 316 µM
- zinc finger reactivity / zinc ejection rate [3]: 3.3 RFU/min
- Zinc Finger Reactivity RFU/min [3, 6]: 3.3 RFU/min

Compound: CC(=O)Nc1ccc(S(=O)(=O)c2ccc(NC(=O)c3ccccc3SSc3ccccc3C(=O)Nc3ccc(S(=O)(=O)c4ccc(NC(C)=O)cc4)cc3)cc2)cc1 [Compound 27 D]
- EC50 ([1]; Table 3, read-out: EC50): 1.5 µM
- EC50 [1, 4]: 1.5 µM
- IC50 ([2]; read-out: toxicity / IC50): 160 µM
- zinc finger reactivity / zinc ejection rate [3]: 5.9 RFU/min
- Zinc Finger Reactivity RFU/min [3, 6]: 5.9 RFU/min

Compound: CC(=O)Nc1ccc(S(=O)(=O)Nc2ccc(S(=O)(=O)c3ccc(-n4sc5ccccc5c4=O)cc3)cc2)cc1 [Compound 28 BITA]
- EC50 ([1]; Table 3, read-out: EC50): 9.6 µM
- IC50 [2, 5]: 188 µM
- Zinc Finger Reactivity RFU/min [3, 6]: 7.9 RFU/min

Compound: CC(=O)Nc1ccc(S(=O)(=O)Nc2ccc(S(=O)(=O)c3ccc(NC(=O)c4ccccc4SSc4ccccc4C(=O)Nc4ccc(S(=O)(=O)c5ccc(NS(=O)(=O)c6ccc(NC(C)=O)cc6)cc5)cc4)cc3)cc2)cc1 [Compound 28 D]
- EC50 ([1]; Table 3, read-out: EC50): 1 µM
- IC50 [2, 5]: 12.7 µM
- Zinc Finger Reactivity RFU/min [3, 6]: 5.9 RFU/min

Compound: O=c1c2ccccc2sn1-c1ccc(S(=O)(=O)c2ccc([N+](=O)[O-])cc2)cc1 [Compound 31 BITA]
- antiviral activity (in words) [1]: without antiviral activity
- IC50 [2, 5]: > 316 µM
- Zinc Finger Reactivity RFU/min [3, 6]: 4.1 RFU/min

Compound: O=C(Nc1ccc(S(=O)(=O)c2ccc([N+](=O)[O-])cc2)cc1)c1ccccc1SSc1ccccc1C(=O)Nc1ccc(S(=O)(=O)c2ccc([N+](=O)[O-])cc2)cc1 [Compound 31 D]
- EC50 increase vs compound 26 [1]: 2.6 fold
- EC50 [1, 4]: 12.2 µM
- IC50 [2, 5]: > 316 µM
- cellular toxicity (in words) [2]: non-toxic
- cellular toxicity (in words) ([2]; listed as 31): no toxicity
- Zinc Finger Reactivity RFU/min [3, 6]: 2.9 RFU/min

Compound: O=C(Nc1ccc(S(=O)(=O)c2ccc(NC(=O)c3ccccc3SSc3ccccc3C(=O)Nc3ccc(S(=O)(=O)c4ccc(NC(=O)c5ccc([N+](=O)[O-])cc5)cc4)cc3)cc2)cc1)c1ccc([N+](=O)[O-])cc1 [Compound 32 D]
- EC50 ([1]; Table 3, read-out: EC50): 78 µM
- IC50 [2, 5]: > 316 µM
- Zinc Finger Reactivity RFU/min [3, 6]: 2.9 RFU/min

Compound: O=c1c2ccccc2sn1-c1ccc(S(=O)(=O)c2ccc(NS(=O)(=O)Cc3ccccc3[N+](=O)[O-])cc2)cc1 [Compound 34 BITA]
- antiviral activity (in words) [1]: significant antiviral activity
- EC50 ([1]; Table 3, read-out: EC50): 3.2 µM
- IC50 [2, 5]: 59.5 µM
- Zinc Finger Reactivity RFU/min [3, 6]: 2 RFU/min

Compound: O=C(Nc1ccc(S(=O)(=O)c2ccc(NS(=O)(=O)Cc3ccccc3[N+](=O)[O-])cc2)cc1)c1ccccc1SSc1ccccc1C(=O)Nc1ccc(S(=O)(=O)c2ccc(NS(=O)(=O)Cc3ccccc3[N+](=O)[O-])cc2)cc1 [Compound 34 D]
- antiviral activity (in words) [1]: significant antiviral activity
- EC50 [1, 4]: 12.3 µM
- IC50 [2, 5]: > 316 µM
- cellular toxicity (in words) [2]: no toxicity
- Zinc Finger Reactivity RFU/min [3, 6]: 1.5 RFU/min

Compound: CC(=O)NS(=O)(=O)c1ccc(NC(=O)c2ccccc2NC(=O)CCCl)cc1 [Compound 37, N-[2-(3-chloro-propionamido)benzoyl]sulfacetamide]
- antiviral activity (in words) [1]: neither had appreciable antiviral activity
- IC50 [2, 7]: >316 µM
- zinc finger reactivity (in words) [3]: modest zinc finger reactivity
- Zinc Finger Reactivity RFU/min [3, 8]: 2.0 RFU/min

Compound: CC(=O)NS(=O)(=O)c1ccc(NC(=O)c2cccc(NC(=O)CCCl)c2)cc1 [Compound 38]
- antiviral activity (in words) [1]: neither had appreciable antiviral activity
- EC50 ([1]; Table 5, read-out: EC50): 38 µM
- IC50 [2, 7]: 103 µM
- zinc finger reactivity (in words) [3]: modest zinc finger reactivity
- Zinc Finger Reactivity RFU/min [3, 8]: 3.9 RFU/min

Compound: CC(=O)NS(=O)(=O)c1ccc(NC(=O)c2ccccc2NC(=O)CCl)cc1 [Compound 39]
- antiviral activity (in words) [1]: completely inactive
- IC50 [2, 7]: 202 µM
- Zinc Finger Reactivity RFU/min [3, 8]: 0.3 RFU/min

Compound: CC(=O)NS(=O)(=O)c1ccc(NC(=O)c2ccccc2SC(C)=O)cc1 [Compound 40]
- EC50 ([1]; Table 5, read-out: EC50): 2.8 µM
- IC50 [2, 7]: 56.7 µM
- IC50 ([2]; read-out: IC50 range): ~50 µM
- Zinc Finger Reactivity RFU/min [3, 8]: 4.2 RFU/min

Compound: CC(=O)NS(=O)(=O)c1ccc(NC(=O)c2ccccc2SC(=O)c2ccccc2)cc1 [Compound 41]
- EC50 ([1]; Table 5, read-out: EC50): 2.6 µM
- IC50 [2, 7]: 45.7 µM
- IC50 ([2]; read-out: IC50 range): ~50 µM
- Zinc Finger Reactivity RFU/min [3, 8]: 2.2 RFU/min

Compound: COc1ccc(C(=O)Sc2ccccc2C(=O)Nc2ccc(S(=O)(=O)NC(C)=O)cc2)cc1 [Compound 42]
- EC50 ([1]; Table 5, read-out: EC50): 2.8 µM
- IC50 [2, 7]: 43.7 µM
- IC50 ([2]; read-out: IC50 range): ~50 µM
- Zinc Finger Reactivity RFU/min [3, 8]: 3.5 RFU/min

Compound: O=C(CCCCBr)Sc1ccccc1C(=O)Nc1ccc(S(=O)(=O)c2ccc([N+](=O)[O-])cc2)cc1 [Compound 46]
- EC50 ([1]; Table 6, read-out: EC50 %): 1.6 µM
- IC50 [2, 9]: 21.7 µM
- Zinc Finger Reactivity RFU/min [3, 10]: 1 RFU/min

Compound: O=C(CCCCBr)Sc1ccccc1C(=O)Nc1ccc(S(=O)(=O)c2ccc(NS(=O)(=O)Cc3ccccc3[N+](=O)[O-])cc2)cc1 [Compound 49]
- IC50 [2, 9]: > 316 µM
- Zinc Finger Reactivity RFU/min [3, 10]: 1.9 RFU/min

Compound: CC(=O)NS(=O)(=O)c1ccc(NC(=O)c2ccccc2SC(=O)CCC[n+]2ccccc2)cc1 [Compound 54]
- EC50 ([1]; Table 10, read-out: EC50 %): 10.1 µM
- IC50 ([2]; Table 10, 50% cytotoxicity, read-out: IC50): 175 µM
- Zinc Finger Reactivity RFU/min ([3]; Table 10, average decrease in relative fluorescence units over 30 min): 2.2 RFU/min
